# Assay results as given in patent US20100105652A1, “PURINES AS CYSTEINE PROTEASE INHIBITORS” (Glaxo Group Limited, priority 2007, published 2010).
# Structures can show the parent of a compound that is named as a salt.
# Key:
# [1] = molecular target: T1, Falcipain-2 (Plasmodium falciparum, UniProt Q8I6U4); assay: falcipain-2 enzymatic assay (fluorogenic substrate H-D-VLR-AFC, endpoint); format: biochemical; settings: parasitic recombinant enzyme, pH 5.5, quenched after 60 minutes
# T1 sequence (Q8I6U4 244-484): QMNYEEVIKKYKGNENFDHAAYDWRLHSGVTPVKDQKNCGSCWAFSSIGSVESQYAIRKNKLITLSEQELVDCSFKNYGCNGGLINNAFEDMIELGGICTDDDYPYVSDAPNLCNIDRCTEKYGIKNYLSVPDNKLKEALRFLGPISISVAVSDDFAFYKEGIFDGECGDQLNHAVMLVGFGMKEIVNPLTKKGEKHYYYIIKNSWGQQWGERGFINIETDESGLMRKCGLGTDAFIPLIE
# Protocol: (§1) 1) Determination of Falcipain-2, Falcipain-3, Vivapain-2, and Cathepsin S Proteolytic Catalytic Activity
# (§2) Assays for Falcipain-2, Falcipain-3, and Vivapain-2 are carried out with parasitic recombinant enzymes. Cathepsins S is carried out with human recombinant enzymes. Standard assay conditions for the determination of kinetic constants used a fluorogenic peptide substrate, typically H-D-VLR-AFC (Falcipain-2, Falcipain-3, Vivapain-2) or KQKLR-AMC (Cathepsin S) and are determined in 100 mM sodium acetate, pH 5.5, containing 10 mM DTT and 0.5 mM CHAPS (Falcipain-2, Falcipain-3, Vivapain-2), or 50 mM MES, pH 6.5, containing 0.5 mM CHAPS, 10 mM L-CYS, 5 mM EDTA (Cathepsin S). Stock substrate solutions are prepared at 20 mM in DMSO. The activity assays contained 30 uM substrate (Falcipain-2, Falcipain-3, Vivapain-2), and 30 uM substrate (Cathepsin S). All assays contained 1% DMSO. […] All assays are conducted at ambient temperature as end point assays being quenched after 60 minutes with the exception of Cathepsin S at 90 minutes, with 16.6 uM E-64 in 1% DMSO. Product formation (AFC or AMC) is determined from fluorescence (excitation at 405 nm; emission at 530 nm, AFC, or excitation at 360 nm; emission at 460 nm, AMC) monitored with a LJL Aquest (Molecular Devices) fluorescent plate reader. In the case of kinetic reads (used in mechanism of action studies), the reaction is not quenched but is read in the plate reader every 3 minutes for approximately 90 minutes. In addition, the mechanism of action studies for Falcipain-2 utilize Z-LR-AMC as the substrate. Product formation is determined from the fluorescence of AMC, measured with a LJL Acquest (Molecular Devices) fluorescent plate reader (excitation at 360 nm; emission at 460 nm).
# (§3) Potential inhibitors are evaluated using the quenched read (endpoint) method. Assays are carried out in the presence of variable concentrations of test compound. Reactions are initiated by addition of enzyme and substrate to wells containing inhibitor stamped in 100% DMSO. For endpoint assays, the reaction is quenched with the addition of E64. Dose response data is fit to an IC50 curve with preset fitting tools according to equation 1:
# (§4) y=a+(b−a)/(1+(10^X/10^C)^d) (1)
# (§5) where y is the response at a particular inhibitor concentration x, a is the minimum response value, b is the maximum response value, c is the IC50, and d is the slope of the IC50 curve. Assuming the compound is a competitive inhibitor, the apparent KI can be calculated from IC50, as shown in equation 2: […]
# [2] = molecular target: T2, Falcipain-3 (Plasmodium falciparum, UniProt Q8IIL0); assay: falcipain-3 enzymatic assay (fluorogenic substrate H-D-VLR-AFC, endpoint); format: biochemical; settings: parasitic recombinant enzyme, pH 5.5, quenched after 60 minutes
# T2 sequence (Q8IIL0 243-492): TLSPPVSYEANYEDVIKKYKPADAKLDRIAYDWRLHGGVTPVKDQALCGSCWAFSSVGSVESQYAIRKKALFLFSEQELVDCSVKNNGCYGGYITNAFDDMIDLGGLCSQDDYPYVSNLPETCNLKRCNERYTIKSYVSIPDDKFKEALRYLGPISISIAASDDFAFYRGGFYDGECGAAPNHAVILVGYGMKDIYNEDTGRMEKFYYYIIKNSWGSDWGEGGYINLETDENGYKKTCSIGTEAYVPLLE
# Protocol: as §1, §2, §3, §4, §5
# [3] = system: Plasmodium falciparum parasite; assay: whole cell activity against the Plasmodium falciparum parasite; format: cell-based
# Source text: Equation 7 describes the apparent KI for competitive compounds and was substituted into equations 5 and 6 to generate the relevant binding constants from the fitting routine. In addition, the initial and final velocities were fit to equation 3 to further define the binding mechanism and potency. A complete discussion of this kinetic treatment has been fully described (Morrison et al., Adv. Enzymol. Relat. Areas Mol. Biol., 1988, 61, 201). 2) Determination of Whole Cell Activity Against the Plasmodium falciparum Parasite Compounds can be evaluated for whole cell activity against the Plasmodium falciparum parasite according to the procedure described in Sijwali S, and Rosenthal P. J., (2004) Proceedings of the National Academy of Sciences of the United States of America (PNAS) 101(13), 4384-4389 (see in particular “Measurement of Parasite Growth rates and Inhibitor Sensitivity” on page 4385); IC50 values can be calculated as described in Singh A. and Rosenthal P. J., (2001) Antimicrobial Agents and Chemotherapy 45(3), 949-951 (see in particular page 950, first column); synchronised parasites can be prepared as described in Divo A. A. et al., (1985) Protozool. 32, 59-64.
IC50 [1],IC50 [2],IC50 [3],Compound
2.5 to 15 nM,150 to 250 nM,250 to 400 nM,"CN1CCN(Cc2cccc(C(=O)NN(c3nc(C#N)nc4c3ncn4C)C3CCCC3)n2)CC1 [Example 26, N′-(2-cyano-9-methyl-9H-purin-6-yl)-N′-cyclopentyl-6-[(4-methyl-1-piperazinyl)methyl]-2-pyridinecarbohydrazide trifluoroacetate]"
2.5 to 15 nM,15 to 150 nM,400 to 1000 nM,"CN1CCN(Cc2ccc(C(=O)NN(c3nc(C#N)nc4[nH]cnc34)C3CCCCC3)cc2)CC1 [Example 30, N′-(2-cyano-1H-purin-6-yl)-N′-cyclohexyl-4-[(4-methyl-1-piperazinyl)methyl]benzohydrazide trifluoroacetate]"
2.5 to 15 nM,250 to 400 nM,2.5 to 15 nM,"CN1CCC(CN2CCN(Cc3ccc(C(=O)NN(c4nc(C#N)nc5c4ncn5C)C4CCCC4)cc3)CC2)CC1 [Example 5, N′-(2-cyano-9-methyl-9H-purin-6-yl)-N′-cyclopentyl-4-({4-[(1-methyl-4-piperidinyl)methyl]-1-piperazinyl}methyl)benzohydrazide trifluoroacetate]"
2.5 to 15 nM,15 to 150 nM,15 to 150 nM,"CN(C)CCCn1cnc2c(N(NC(=O)c3cccc(-c4ccc(CN5CCN(C)CC5)cc4)n3)C3CCCCC3)nc(C#N)nc21 [Example 46, N′-{2-cyano-9-[3-(dimethylamino)propyl]-9H-purin-6-yl}-N′-cyclo hexyl-6-{4-[(4-methyl-1-piperazinyl)methyl]phenyl}-2-pyridinecarbohydrazide trifluoroacetate]"
2.5 to 15 nM,150 to 250 nM,15 to 150 nM,"CN1CCN(C(=O)C2CCN(Cc3ccc(C(=O)NN(c4nc(C#N)nc5c4ncn5C)C4CCCC4)cc3)CC2)CC1 [Example 6, N′-(2-cyano-9-methyl-9H-purin-6-yl)-N′-cyclopentyl-4-({4-[(4-methyl-1-piperazinyl)carbonyl]-1-piperidinyl}methyl)benzohydrazide trifluoroacetate]"
1 to 2.5 nM,150 to 250 nM,150 to 250 nM,"CC(=O)N1CCC(N(NC(=O)OC(C)(C)C)c2nc(C#N)nc3c2ncn3C)CC1 [Example 20, 1,1-dimethylethyl-2-(1-acetyl-4-piperidinyl)-2-(2-cyano-9-methyl-9H-purin-6-yl)hydrazinecarboxylate]"
≤ 1 nM,15 to 150 nM,15 to 150 nM,"CN1CCN(Cc2ccc(-c3cncc(C(=O)NN(c4nc(C#N)nc5c4ncn5C)C4CCCC4)c3)cc2)CC1 [Example 27, N′-(2-Cyano-9-methyl-9H-purin-6-yl)-N′-cyclopentyl-5-{4-[(4-methyl-1-piperazinyl)methyl]phenyl}-3-pyridinecarbohydrazide trifluoroacetate]"
2.5 to 15 nM,15 to 150 nM,15 to 150 nM,"CN1CCN(c2cccc(C(=O)NN(c3nc(C#N)nc4c3ncn4C)C3CCCCC3)c2)CC1 [Example 36, N′-(2-cyano-9-methyl-9H-purin-6-yl)-N′-cyclohexyl-3-(4-methyl-1-piperazinyl)benzohydrazide trifluoroacetate]"
≤ 1 nM,15 to 150 nM,15 to 150 nM,"CN(C)CCn1cnc2c(N(CC3CCCC3)NC(=O)OC(C)(C)C)nc(C#N)nc21 [Example 13, 1,1-dimethylethyl 2-{2-cyano-9-[2-(dimethylamino)ethyl]-9H-purin-6-yl}-2-(cyclopentylmethyl)hydrazinecarboxylate trifluoroacetate]"
1 to 2.5 nM,15 to 150 nM,15 to 150 nM,"CN1CCN(Cc2ccc(C(=O)NN(c3nc(C#N)nc4c3ncn4C(=O)N3CCN(C)CC3)C3CCCC3)cc2)CC1 [Example 34, N′-{2-cyano-9-[(4-methyl-1-piperazinyl)carbonyl]-9H-purin-6-yl}-N′-cyclopentyl-4-[(4-methyl-1-piperazinyl)methyl]benzohydrazide trifluoroacetate]"
